# pIC50: −log10 of the molar value.
# What was measured:
# [1] = system: human erythroid progenitors (CFU-E, BFU-E); test: Colony forming cell assay, human erythroid progenitor (CFU-E, BFU-E) proliferation; format: cell-based; conditions: 336 h, single agent, 14 days, CFU-E and BFU-E
# Experimental: (§1) Clonogenic progenitors of human erythroid (CFU-E, BFU-E), granulocyte-monocyte (CFU-GM), and multipotential (CFU-GEMM) lineages were assessed in a semi-solid methylcellulose-based media formulation containing rhIL-3 (10 ng/mL), rhGM-SCF (10 ng/mL), rhSCF (50 ng/mL), and Epo (3 U/mL).
# (§2) In addition, 5-FU was evaluated at 1.0, 0.1 and 0.01 μg/mL as a positive control for toxicity.
# (§3) Normal human bone marrow light density cells (lot #0210901), derived from normal bone marrow, (Lonza, Maryland) and qualified at ReachBio, were stored at −152° C. until required for the assay. On the day of the experiment, the cells were thawed rapidly, diluted in 10 mL of Iscove's modified Dulbecco's medium containing 10% fetal bovine serum (IMDM+10% FBS) and washed by centrifugation (approximately 1500 r.p.m. for 10 minutes at room temperature). The supernatant was discarded and the cell pellets were resuspended in a known volume of IMDM+10% FBS. A cell count (3% glacial acetic acid) and viability assessment (trypan blue exclusion test) was performed for the bone marrow sample.
# Clonogenic progenitors of human megakaryocyte (CFU-Mk) were assessed in a collagen-based media formulation containing rhIL-3 (10 ng/mL), rhIL-6 (10 ng/mL), and Tpo (50 ng/mL). Clonogenic progenitors of the human erythroid (CFU-E and BFU-E), myeloid (CFU-GM), and megakaryocyte (CFU-Mk) lineages were set up in the media formulations described above. Individually, the test compounds were added to the medium to give the final desired concentrations (10, 3.33, 1, 0.333, 0.1, 0.0333, 0.01 and 0.00333 μM). […]
# Human myeloid and erythroid progenitor assays were initiated at 1.2×10^4 cells per culture (lot #0210921) and the human megakaryocyte assays were initiated at 1.2×10^5 cells per culture (lot #0210921). Following 14 days in culture, erythroid and myeloid colonies were assessed microscopically in situ and scored by trained personnel. […] The colonies were assessed microscopically and scored by trained personnel and divided into the following categories based on size: CFU-Mk (3-20), CFU-Mk (21-49), and CFU-Mk (≥50).
# Statistical analysis: The mean±standard deviation of three replicate cultures was calculated for both erythroid and myeloid progenitors. […]
# (§4) Erythroid (CFU-E and BFU-E) and myeloid (CFU-GM) colony enumeration was performed by trained personnel. In addition, the distribution of colony types as well as general colony and cellular morphology was analyzed. The variance in colony number detected in replicate cultures was representative of the historical coefficient of variation for colony enumeration using these types of assays. The number and distribution of colonies detected in the solvent control (0.1% DMSO for single agents) was no different from the standard control (containing no compound and no DMSO). […]
# [2] = system: human myeloid progenitors (CFU-GM); test: Colony forming cell assay, human myeloid (granulocyte-monocyte, CFU-GM) progenitor proliferation; format: cell-based; conditions: single agent
# Experimental: as §1, §2, §3
# (§5) Clonogenic progenitors of human megakaryocyte (CFU-Mk) were assessed in a collagen-based media formulation containing rhIL-3 (10 ng/mL), rhIL-6 (10 ng/mL), and Tpo (50 ng/mL). Clonogenic progenitors of the human erythroid (CFU-E and BFU-E), myeloid (CFU-GM), and megakaryocyte (CFU-Mk) lineages were set up in the media formulations described above. Individually, the test compounds were added to the medium to give the final desired concentrations (10, 3.33, 1, 0.333, 0.1, 0.0333, 0.01 and 0.00333 μM). […] Solvent control cultures (containing no compound but 0.1% DMSO) as well as standard controls (containing no compound and no DMSO) were also initiated. Once introduced into the matrices, the tubes were vortexed to ensure an equal distribution throughout.
# (§6) Human myeloid and erythroid progenitor assays were initiated at 1.2×10^4 cells per culture (lot #0210921) and the human megakaryocyte assays were initiated at 1.2×10^5 cells per culture (lot #0210921). Following 14 days in culture, erythroid and myeloid colonies were assessed microscopically in situ and scored by trained personnel. The colonies were divided into the following categories based on size and morphology: CFU-E, BFU-E, CFU-GM, and CFU-GEMM. The human megakaryocyte cultures were transferred from the 35 mm dishes to labeled glass slides, fixed with methanol/acetone fixative, and then stained with anti-human CD41 antibody and an alkaline phosphate detection system according to manufacturers' instructions. The colonies were assessed microscopically and scored by trained personnel and divided into the following categories based on size: CFU-Mk (3-20), CFU-Mk (21-49), and CFU-Mk (≥50).
# (§7) Statistical analysis: The mean±standard deviation of three replicate cultures was calculated for both erythroid and myeloid progenitors. Two-tailed standard t-tests were performed to assess if there was a difference in the number of colonies generated between solvent control and treated cultures. Due to the potential subjectivity of colony enumeration, a p value of less than 0.01 is deemed significant. To calculate the concentration of 50% inhibition of colony growth (IC50) for each compound, a dose response curve was generated plotting the log of the compound concentration versus the percentage of control colony growth using GraphPad Prism 9 software.
# as §4
# [3] = system: human megakaryocyte progenitors (CFU-Mk); test: Colony forming cell assay, human megakaryocyte progenitor (CFU-Mk) proliferation; format: cell-based; conditions: Homo sapiens; single agent; read-out: IC50, total CFU-Mk (megakaryocyte progenitor proliferation)
# Experimental: as §2, §3, §5, §6, §7
# Other than the test compounds being combined, the only change from the method in Example 1 was a 0.2% DMSO solvent control instead of 0.1% DMSO. The results are provided in FIGS. 2A-4C (FIGS. 2A-2C are human megakaryocytes (CFU-MK), FIGS. 3A-3C are human erythroid (CFU-E, BFU-E), and FIGS. 4A-4C are human granulocyte-monocyte (CFU-GM).
# PIM1 = conditions: read-out: Preclinical IC50, PIM1; cited from earlier work
compound,measurement,setting,value
CC(C)(O)[C@H]1CC[C@H](Nc2ccc3ncc(-c4cccc(C(F)(F)F)c4)n3n2)CC1 [Compound (1)],pIC50,[1],5.37
same,pIC50,"[2]; Homo sapiens, 336 h, 14 days, CFU-GM",5.88
same,"concentrations at which myeloid progenitor proliferation was (significantly, additionally) inhibited","[2]; vs 0.1% DMSO solvent control, p<0.01",1.0 µM
same,pIC50,[3],5.81
same,pIC50,PIM1,8.30
